According to PubChem BioAssay (NCI):
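Tested at 5 concentrations; 48 h exposure; 96-well plates; endpoints linearly interpolated, else capped at highest concentration. GI50 marks 50% less growth. At the TGI there is no net growth.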

How the values were obtained:
Assay in all cases: NCI-60 cell line screen, 48 h
[1] = tested on: 786-0 renal
[2] = tested on: A549 NSCLC
[3] = tested on: ACHN renal
[4] = tested on: BT-549 breast
[5] = tested on: CAKI-1 renal
[6] = tested on: CCRF-CEM leukemia
[7] = tested on: COLO 205 colon
[8] = tested on: DU-145 prostate
[9] = tested on: EKVX NSCLC
[10] = tested on: HCC-2998 colon
[11] = tested on: HCT-116 colon
[12] = tested on: HCT-15 colon
[13] = tested on: HOP-62 NSCLC
[14] = tested on: HOP-92 NSCLC
[15] = tested on: HS 578T breast
[16] = tested on: HT29 colon
[17] = tested on: IGROV1 ovarian
[18] = tested on: K-562 leukemia
[19] = tested on: KM12 colon
[20] = tested on: LOX IMVI melanoma
[21] = tested on: M14 melanoma
[22] = tested on: MALME-3M melanoma
[23] = tested on: MCF7 breast
[24] = tested on: MDA-MB-231 breast
[25] = tested on: MDA-MB-435
[26] = tested on: MOLT-4 leukemia
[27] = tested on: NCI-H226 lung
[28] = tested on: NCI-H23 lung
[29] = tested on: NCI-H460 lung
[30] = tested on: NCI-H522 lung
[31] = tested on: NCI/ADR-RES ovarian
[32] = tested on: OVCAR-3 ovarian
[33] = tested on: OVCAR-4 ovarian
[34] = tested on: OVCAR-5 ovarian
[35] = tested on: OVCAR-8 ovarian
[36] = tested on: PC-3 prostate
[37] = tested on: RPMI-8226 leukemia
[38] = tested on: RXF 393 renal
[39] = tested on: SF-268 CNS
[40] = tested on: SF-295 CNS
[41] = tested on: SF-539 CNS
[42] = tested on: SK-MEL-2 melanoma
[43] = tested on: SK-MEL-28 melanoma
[44] = tested on: SK-MEL-5 melanoma
[45] = tested on: SK-OV-3 ovarian
[46] = tested on: SN12C renal
[47] = tested on: SNB-19 CNS
[48] = tested on: SNB-75 CNS
[49] = tested on: SR leukemia
[50] = tested on: SW-620 colon
[51] = tested on: T-47D breast
[52] = tested on: TK-10 renal
[53] = tested on: U251 CNS
[54] = tested on: UACC-257 melanoma
[55] = tested on: UACC-62 melanoma
[56] = tested on: UO-31 renal

Work on `COc1ccc2c(c1)/C(=C\c1c(C)nc3sc(C)cn13)C(=O)N2C` yielded a GI50 [1] of 8.92 µM, a TGI [1] greater than 100 µM and a GI50 [2] of 30.7 µM. For the same compound, the TGI [2] was greater than 100 µM, the GI50 [3] was 4.82 µM and the TGI [3] was 62.7 µM. For the same compound, the GI50 [4] was 6.01 µM, the TGI [4] was 49.7 µM and the GI50 [5] was 1.33 µM. It also gave a TGI [5] of 4.33 µM, a GI50 [6] of 5.46 µM and a TGI [6] greater than 100 µM. It also gave a GI50 [7] of 3.42 µM, a TGI [7] of 49.8 µM and a GI50 [8] of 11 µM. It also gave a TGI [8] greater than 100 µM, a GI50 [9] of 16.7 µM and a TGI [9] of 73.8 µM. The GI50 [10] was 1.37 µM, the TGI [10] was 4.68 µM and the GI50 [11] was 6 µM. For the same compound, the TGI [11] was greater than 100 µM, the GI50 [12] was 2.73 µM and the TGI [12] was 40.3 µM. The GI50 [13] was 20.5 µM, the TGI [13] was greater than 100 µM and the GI50 [14] was 7.42 µM. The TGI [14] was 37 µM, the GI50 [15] was 1.83 µM and the TGI [15] was 5.4 µM. The GI50 [16] was 3.27 µM, the TGI [16] was 19.2 µM and the GI50 [17] was 9.74 µM. The TGI [17] was greater than 100 µM, the GI50 [18] was 1.83 µM and the TGI [18] was greater than 100 µM. For the same compound, the GI50 [19] was 4.87 µM, the TGI [19] was 43.4 µM and the GI50 [20] was 4.4 µM. For the same compound, the TGI [20] was 26.2 µM, the GI50 [21] was 4.99 µM and the TGI [21] was 61.1 µM. For the same compound, the GI50 [22] was 7.09 µM, the TGI [22] was 73.3 µM and the GI50 [23] was 3.29 µM. It also gave a TGI [23] of 35.4 µM, a GI50 [24] of 4.59 µM and a TGI [24] of 65 µM. The GI50 [25] was 1.51 µM, the TGI [25] was 5.72 µM and the GI50 [26] was 3.76 µM. The TGI [26] was greater than 100 µM, the GI50 [27] was 2.74 µM and the TGI [27] was 15.9 µM. For the same compound, the GI50 [28] was 8.04 µM, the TGI [28] was 35.3 µM and the GI50 [29] was 3.54 µM. For the same compound, the TGI [29] was 36.6 µM, the GI50 [30] was 2.54 µM and the TGI [30] was 8.44 µM. The GI50 [31] was 1.32 µM, the TGI [31] was 4.04 µM and the GI50 [32] was 1.43 µM. It also gave a TGI [32] of 3.99 µM, a GI50 [33] of 26.4 µM and a TGI [33] greater than 100 µM. The GI50 [34] was 19.9 µM, the TGI [34] was greater than 100 µM and the GI50 [35] was 6.14 µM. For the same compound, the TGI [35] was greater than 100 µM, the GI50 [36] was 6.9 µM and the TGI [36] was 62.4 µM. For the same compound, the GI50 [37] was 4.75 µM, the TGI [37] was greater than 100 µM and the GI50 [38] was 4.84 µM. For the same compound, the TGI [38] was 48.3 µM, the GI50 [39] was 4.62 µM and the TGI [39] was 39 µM. The GI50 [40] was 2.25 µM, the TGI [40] was 6.88 µM and the GI50 [41] was 1.91 µM. The TGI [41] was 6.63 µM, the GI50 [42] was 9.57 µM and the TGI [42] was greater than 100 µM. The GI50 [43] was 7.26 µM, the TGI [43] was 35.5 µM and the GI50 [44] was 2.15 µM. For the same compound, the TGI [44] was 5.49 µM, the GI50 [45] was 2.35 µM and the TGI [45] was 7.18 µM. For the same compound, the GI50 [46] was 4.7 µM, the TGI [46] was 32.3 µM and the GI50 [47] was 4.08 µM. It also gave a TGI [47] greater than 100 µM, a GI50 [48] of 5.88 µM and a TGI [48] of 51.2 µM. For the same compound, the GI50 [49] was 0.345 µM, the TGI [49] was greater than 100 µM and the GI50 [50] was 3.25 µM. The TGI [50] was 18 µM, the GI50 [51] was 1.78 µM and the TGI [51] was 5.35 µM. The GI50 [52] was 4.35 µM, the TGI [52] was 37.8 µM and the GI50 [53] was 3.69 µM. For the same compound, the TGI [53] was 31.2 µM, the GI50 [54] was 21.8 µM and the TGI [54] was greater than 100 µM. The GI50 [55] was 1.69 µM, the TGI [55] was 10 µM and the GI50 [56] was 10 µM. The TGI [56] was greater than 100 µM.
